Reference: patent publication US20260274818A1, “HETEROCYCLOALKYL BETA-HYDROXY ALKYL AMINES FOR USE IN THE TREATMENT OF HYPERGLYCAEMIA AND DISORDERS CHARACTERISED BY HYPERGLYCAEMIA” (ATROGI AB, priority 2023, published 2026)
Where a name gives a salt, the structure may show the parent alone.

Tests used:
L6-myotubes = test: Glucose uptake (3H-2-deoxyglucose) in differentiated L6-myotubes; type: cell-based; details: compound at 10 μM vs isoproterenol at 10 μM
Procedure: (§1) L6-myoblasts were grown in Dulbecco's Modified Eagle's Medium (DMEM) containing 1 g/L glucose supplemented with 10% fetal bovine serum, 2 mM L-Glutamine, 50 U/mL penicillin, […] streptomycin and 10 mM HEPES. Cells were plated at 1×10^5 cells per mL in 24-well plates. After reaching 90% confluence the cells were grown in medium containing 2% FBS for 7 days where upon cells differentiated into myotubes.
Differentiated L6-myotubes were serum-starved overnight in medium containing 0.5% fatty-acid free BSA and stimulated with an agonist, with a final concentration of 1×10^−5 M. After 1 h 40 min the cells were washed with warm glucose free medium or PBS twice and another portion of agonist was added to the glucose free medium. After 20 min the cells were exposed to 50 nM ^3H-2-deoxyglucose for another 10 min before washed in ice cold glucose free medium or PBS three times and lysed in 400 μL/well 0.2 M NaOH for 1 h at 60° C. The cell lysate was mixed with 4 mL scintillation buffer (Emulsifier Safe, Perkin Elmer) and the radioactivity was detected in a β-counter (Tri-Carb 4810TR, Perkin Elmer). The activity for each compound is compared to that of isoproterenol.

Intracellular cAMP = test: Measurement of intracellular cAMP levels in differentiated L6 cells (alpha screen cAMP kit); type: cell-based; details: compound at 10 μM for 15 min vs isoproterenol at 10 μM
Procedure: as §1
Differentiated cells were serum-starved overnight and stimulated with an agonist, final concentration 1×10^−5 M, for 15 min in stimulation buffer (HBSS supplemented with 1% BSA, 5 mM HEPES and 1 mM IBMX, pH 7.4). The medium was aspirated and 100 μL of 95% EtOH was added to each well of the 24-well plate and cells were kept at −20° C. overnight. The EtOH was allowed to evaporate and 500 μL of lysis buffer (1% BSA, 5 mM HEPES and 0.3% Tween-20, pH 7.4) was added to each well. The plate was kept at −80° C. for 30 min and then at −20° C. until the day of detection when the samples were thawed. Intracellular cAMP levels were detected using an alpha screen cAMP kit (6760635D from Perkin Elmer). The activity for each compound is compared to that of isoproterenol.

SMILES	Biological example 1: glucose uptake, activity compared to that of isoproterenol (L6-myotubes)	Biological example 2: intracellular cAMP levels, activity compared to that of isoproterenol (Intracellular cAMP)
OC(c1cccc(F)c1)[C@H]1CC[C@@H](CC2CCCNC2)N1 (stereo in doubt) [Example 3, (S)-(3-Fluorophenyl)((2R,5S)-5-(((R)-piperidin-3-yl)methyl)pyrrolidin-2-yl)methanol dihydrochloride]	+ (if it is between 50 and 25% it is denoted with +)	− (if it less than 25% it is denoted with −)
OC(c1cccc(F)c1)[C@H]1CC[C@@H](CC2CCCNC2)N1 (stereo in doubt) [Example 6, (R)-(3-Fluorophenyl)((2R,5S)-5-(((S)-piperidin-3-yl)methyl)pyrrolidin-2-yl)methanol dihydrochloride]	+++ (more than 75% of that of isoproterenol at 10 μM, the activity is denoted with +++)	− (if it less than 25% it is denoted with −)
O[C@H](c1cccc(F)c1)[C@H]1CC[C@@H](CC2CCNCC2)N1 [Example 1, (R)-(3-Fluorophenyl)((2R,5S)-5-(piperidin-4-ylmethyl)pyrrolidin-2-yl)-methanol dihydrochloride]	++ (if it is between 75 and 50% it is denoted with ++)	− (if it less than 25% it is denoted with −)
O[C@@H](c1cccc(F)c1)[C@H]1CC[C@@H](CC2CCNCC2)N1 [Example 2, (S)-(3-Fluorophenyl)((2R,5S)-5-(piperidin-4-ylmethyl)pyrrolidin-2-yl)-methanol dihydrochloride]	+ (if it is between 50 and 25% it is denoted with +)	− (if it less than 25% it is denoted with −)
O[C@@H](c1cccc(F)c1)[C@H]1CC[C@@H](C[C@@H]2CCCNC2)N1 [Example 4, (S)-(3-Fluorophenyl)((2R,5S)-5-(((S)-piperidin-3-yl)methyl)pyrrolidin-2-yl)methanol dihydrochloride]	++ (if it is between 75 and 50% it is denoted with ++)	− (if it less than 25% it is denoted with −)
O[C@H](c1cccc(F)c1)[C@H]1CC[C@@H](C[C@H]2CCCNC2)N1 [Example 5, (R)-(3-Fluorophenyl)((2R,5S)-5-(((R)-piperidin-3-yl)methyl)pyrrolidin-2-yl)methanol dihydrochloride]	++ (if it is between 75 and 50% it is denoted with ++)	− (if it less than 25% it is denoted with −)
CS(=O)(=O)N1CCC(C[C@@H]2CC[C@H]([C@H](O)c3cccc(F)c3)N2)CC1.Cl [Example 7, (R)-(3-Fluorophenyl)((2R,5S)-5-((1-(methylsulfonyl)piperidin-4-yl)-methyl)pyrrolidin-2-yl)methanol hydrochloride]	+++ (more than 75% of that of isoproterenol at 10 μM, the activity is denoted with +++)	− (if it less than 25% it is denoted with −)
CS(=O)(=O)N1CCC(C[C@@H]2CC[C@H]([C@@H](O)c3cccc(F)c3)N2)CC1.Cl [Example 8, (S)-(3-Fluorophenyl)((2R,5S)-5-((1-(methylsulfonyl)piperidin-4-yl)-methyl)pyrrolidin-2-yl)methanol hydrochloride]	++ (if it is between 75 and 50% it is denoted with ++)	− (if it less than 25% it is denoted with −)
CC(=O)N1CCC(C[C@@H]2CC[C@H]([C@H](O)c3cccc(F)c3)N2)CC1.Cl [Example 9, 1-(4-(((2S,5R)-5-((R)-(3-Fluorophenyl)(hydroxy)methyl)pyrrolidin-2-yl)methyl)piperidin-1-yl)ethan-1-one hydrochloride]	+++ (more than 75% of that of isoproterenol at 10 μM, the activity is denoted with +++)	− (if it less than 25% it is denoted with −)
CC(=O)N1CCC(C[C@@H]2CC[C@H]([C@@H](O)c3cccc(F)c3)N2)CC1.Cl [Example 10, 1-(4-(((2S,5R)-5-((S)-(3-Fluorophenyl)(hydroxy)methyl)pyrrolidin-2-yl)methyl)piperidin-1-yl)ethan-1-one hydrochloride]	− (if it less than 25% it is denoted with −)	− (if it less than 25% it is denoted with −)
CS(=O)(=O)N1CCC[C@H](C[C@@H]2CC[C@H]([C@@H](O)c3cccc(F)c3)N2)C1.Cl [Example 11, (S)-(3-Fluorophenyl)((2R,5S)-5-(((R)-1-(methylsulfonyl)piperidin-3-yl)methyl)pyrrolidin-2-yl)methanol hydrochloride]	+ (if it is between 50 and 25% it is denoted with +)	− (if it less than 25% it is denoted with −)
CS(=O)(=O)N1CCC[C@H](C[C@@H]2CC[C@H]([C@H](O)c3cccc(F)c3)N2)C1.Cl [Example 12, (R)-(3-Fluorophenyl)((2R,5S)-5-(((R)-1-(methylsulfonyl)piperidin-3-yl)methyl)pyrrolidin-2-yl)methanol hydrochloride]	+++ (more than 75% of that of isoproterenol at 10 μM, the activity is denoted with +++)	− (if it less than 25% it is denoted with −)
CS(=O)(=O)N1CCC[C@@H](C[C@@H]2CC[C@H]([C@@H](O)c3cccc(F)c3)N2)C1.Cl [Example 13, (S)-(3-Fluorophenyl)((2R,5S)-5-(((S)-1-(methylsulfonyl)piperidin-3-yl)methyl)pyrrolidin-2-yl)methanol hydrochloride]	++ (if it is between 75 and 50% it is denoted with ++)	− (if it less than 25% it is denoted with −)
CS(=O)(=O)N1CCC[C@@H](C[C@@H]2CC[C@H]([C@H](O)c3cccc(F)c3)N2)C1.Cl [Example 14, (R)-(3-Fluorophenyl)((2R,5S)-5-(((S)-1-(methylsulfonyl)piperidin-3-yl)methyl)pyrrolidin-2-yl)methanol hydrochloride]	+++ (more than 75% of that of isoproterenol at 10 μM, the activity is denoted with +++)	− (if it less than 25% it is denoted with −)
Cl.O[C@@H](c1cccc(F)c1)[C@H]1CC[C@@H](CC2CCOCC2)N1 [Example 15, (S)-(3-Fluorophenyl)((2R,5S)-5-((tetrahydro-2H-pyran-4-yl)methyl)-pyrrolidin-2-yl)methanol hydrochloride]	++ (if it is between 75 and 50% it is denoted with ++)	− (if it less than 25% it is denoted with −)
Cl.O[C@H](c1cccc(F)c1)[C@H]1CC[C@@H](CC2CCOCC2)N1 [Example 16, (R)-(3-Fluorophenyl)((2R,5S)-5-((tetrahydro-2H-pyran-4-yl)methyl)-pyrrolidin-2-yl)methanol hydrochloride]	+++ (more than 75% of that of isoproterenol at 10 μM, the activity is denoted with +++)	+ (if it is between 50 and 25% it is denoted with +)
